Laboratory results published in PMC12470154, “In Vitro Evaluation of Antimicrobial Amyloidogenic Peptides for the Treatment of Early and Mature Bacterial Biofilms” (International Journal of Molecular Sciences, 2025).

What was measured:
E. coli (MG1655 strain) [1] = assay: Antibacterial activity in liquid medium (optical density); assay type: cell-based, Escherichia coli; settings: 10 mg/mL
E. coli (MG1655 strain) [2] = assay: Mature biofilms, MTT assay; assay type: cell-based, Escherichia coli; set-up: key: ↓: Decrease in the parameter (optical density) compared to the negative control; −: No decrease in the parameter; ↑: Reverse effect (increase in the optical density compared to the control); settings: mature biofilm: peptide added after 24 h, further 24 h, 0.01-10 mg/mL
Protocol: (§1) After 24 h of incubation, the medium was removed. To assess the total biofilm biomass, the wells were rinsed with sterile PBS solution and stained with 0.1% crystal violet. The dye bound to the surface was then removed using 95% ethanol. To assess the presence of metabolically active cells, 0.3% MTT (PanEco Ltd., Moscow, Russia) solution was added to each well, and the plates were incubated at 37 °C for 2 h. After incubation, the MTT solution was removed, 150 µL of DMSO (Chimmed, Moscow, Russia) and 25 µL of glycine buffer were added to each well, and the plates were left at room temperature for 15 min. The resulting solutions were transferred to a flat-bottom 96-well plate, and optical density was measured at 595 nm.
(§2) A stationary-phase culture of the tested strain was diluted 100-fold in fresh medium (200 µL per well) and added to the wells of a 96-well round-bottom plate. […] After another 24 h, the medium was removed and the wells were rinsed with sterile PBS to eliminate planktonic cells. The procedures for assessing total biofilm biomass and cell metabolic activity using crystal violet and MTT assays were performed in the same manner as described above for early-stage biofilm experiments.

E. coli (MG1655 strain) [3] = assay: Early biofilm formation, MTT assay; assay type: cell-based, Escherichia coli; set-up: key: ↓: Decrease in the parameter (optical density) compared to the negative control; −: No decrease in the optical density; ↑: Reverse effect (increase in the optical density compared to the control); settings: 24 h, 0.3% MTT 2 h 37 °C, OD 595 nm
Protocol: as §1

[4] = test system: P. aeruginosa (2943 strain); assay: Early biofilm formation, MTT assay; assay type: cell-based, Pseudomonas aeruginosa; set-up: key: ↓: Decrease in the parameter (optical density) compared to the negative control; −: No decrease in the optical density; ↑: Reverse effect (increase in the optical density compared to the control); settings: 24 h, 0.3% MTT 2 h 37 °C, OD 595 nm
Protocol: as §1

S. aureus (129B strain) [5] = assay: Antibacterial activity on 0.7% agar (inhibition zone); assay type: cell-based, Staphylococcus aureus; set-up: key: +: The presence of a bacterial growth inhibition zone; −: The absence of a bacterial growth inhibition zone; settings: drop on 0.7% agar, 24 h
Protocol: Drops of the samples were applied to the surface of solidified 0.7% agar at the concentrations indicated in Table 2 and Supplementary S2 (Figures S1–S4). After 24 h of incubation, the results were evaluated based on the presence or absence (+/−) of inhibition zones.
Once the agar solidified, drops of peptide samples at the concentrations 1, 0.1, 0.01, and 0.001 mg/mL were applied to the agar surface.

[6] = test system: P. aeruginosa (2943 strain); assay: Early biofilm formation, crystal violet staining; assay type: cell-based, Pseudomonas aeruginosa; settings: 24 h; for change of optical density after crystal violet staining vs negative control: peptide present from inoculation, OD 595 nm
Protocol: as §1

S. aureus (129B strain) [7] = assay: Early biofilm formation, crystal violet staining; assay type: cell-based, Staphylococcus aureus; set-up: key: ↓: Decrease in the parameter (optical density) compared to the negative control; −: No decrease in the parameter; ↑: Reverse effect (increase in the optical density compared to the control); settings: peptide present from inoculation, 24 h, OD 595 nm
Protocol: as §1

E. coli (MG1655 strain) [8] = assay: Early biofilm formation, crystal violet staining; assay type: cell-based, Escherichia coli; set-up: key: ↓: Decrease in the parameter (optical density) compared to the negative control; −: No decrease in the parameter; ↑: Reverse effect (increase in the optical density compared to the control); settings: peptide present from inoculation, 24 h, OD 595 nm
Protocol: as §1

[9] = test system: P. aeruginosa (2943 strain); assay: Early biofilm formation, MTT assay; assay type: cell-based, Pseudomonas aeruginosa; settings: for bacterial metabolic activity (MTT): 10 mg/mL; for concentration given with ↓ (MTT): 24 h
Protocol: as §1

E. coli (MG1655 strain) [10] = assay: Mature biofilms, crystal violet staining; assay type: cell-based, Escherichia coli; set-up: key: ↓: Decrease in the parameter (optical density) compared to the negative control; −: No decrease in the optical density; ↑: Reverse effect (increase in the optical density compared to the control); settings: mature biofilm: peptide added after 24 h, further 24 h, 0.01-10 mg/mL
Protocol: as §1, §2

[11] = test system: P. aeruginosa (2943 strain); assay: Mature biofilms, crystal violet staining; assay type: cell-based, Pseudomonas aeruginosa; set-up: key: ↓: Decrease in the parameter (optical density) compared to the negative control; −: No decrease in the parameter; ↑: Reverse effect (increase in the optical density compared to the control); settings: mature biofilm: peptide added after 24 h, further 24 h; 0.01-10 mg/mL
Protocol: as §1, §2

E. coli (MG1655 strain) [12] = assay: Mature biofilms, MTT assay; assay type: cell-based, Escherichia coli; settings: mature biofilm
Protocol: as §1, §2

E. coli (MG1655 strain) [13] = assay: Mature biofilms, MTT assay; assay type: cell-based, Escherichia coli; set-up: key: ↓: Decrease in the parameter (optical density) compared to the negative control; −: No decrease in the optical density; ↑: Reverse effect (increase in the optical density compared to the control); settings: mature biofilm: peptide added after 24 h, further 24 h; 0.01-10 mg/mL
Protocol: as §1, §2

MRSA (SA 180-F strain) = assay: Early biofilm formation, crystal violet staining; assay type: cell-based, methicillin-resistant Staphylococcus aureus; set-up: key: ↓: Decrease in the parameter (optical density) compared to the negative control; −: No decrease in the optical density; ↑: Reverse effect (increase in the optical density compared to the control); settings: peptide present from inoculation, 24 h, OD 595 nm
Protocol: as §1

Row | Sequence | antimicrobial activity relative to meropenem (E. coli (MG1655 strain) [1]) | change of optical density after MTT assay vs negative control (E. coli (MG1655 strain) [2]) | change of optical density after MTT assay vs negative control (E. coli (MG1655 strain) [3]) | change of optical density after MTT assay vs negative control [4] | bacterial growth inhibition zone (S. aureus (129B strain) [5]; 0.001 mg/mL) | bacterial growth inhibition zone (S. aureus (129B strain) [5]; 0.01 mg/mL) | bacterial growth inhibition zone (S. aureus (129B strain) [5]; 0.1 mg/mL) | bacterial growth inhibition zone (S. aureus (129B strain) [5]; 1 mg/mL) | concentration given with ↓ (crystal violet) [6] [mg/mL] | change of optical density after crystal violet staining vs negative control [6] | change of optical density after crystal violet staining vs negative control (S. aureus (129B strain) [7]) | change of optical density after crystal violet staining vs negative control (E. coli (MG1655 strain) [8]) | bacterial metabolic activity (MTT) [9] | concentration given with ↓ (MTT) [9] [mg/mL] | change of optical density after crystal violet staining vs negative control [11] | residual viability of cells (MTT) (E. coli (MG1655 strain) [12]) | change of optical density after MTT assay vs negative control (E. coli (MG1655 strain) [13]) | change of optical density after crystal violet staining vs negative control (MRSA (SA 180-F strain)) | change of optical density after crystal violet staining vs negative control (E. coli (MG1655 strain) [10]) | further results
1 | RKKRRQRRRGGGGVVVHINGGKFGGGGSRQIKIWFQNRRMKWKK [R44K^S] | comparable to that of meropenem | ↑ | − | − | − | − | − | + | 10 | ↓ (10 mg/mL) | ↑ | ↑ | reduced bacterial metabolic activity | 10 | ↑ | did not inhibit |  |  |  | change of optical density after crystal violet staining vs negative control (E. coli (MG1655 strain) [10]; listed as R44K^P): −
2 | VTDFGVFVEIGGGGSRQIKIWFQNRRMKWKK [V31K^T, amyloidogenic fragment of S1 of T. thermophilus linked via glycine-rich linker to antennapedia peptide] |  |  | − | − | − | − | − | − | 10 | − | ↑ | ↑ | reduced bacterial metabolic activity | 10 | ↑ | did not inhibit | − |  |  | change of optical density after MTT assay vs negative control (E. coli (MG1655 strain) [2]; listed as V31K^S): ↑; change of optical density after crystal violet staining vs negative control ([6]; listed as V31K^S): ↓ (10 mg/mL); change of optical density after crystal violet staining vs negative control (E. coli (MG1655 strain) [10]; listed as V31K^S): −
3 | RKKRRQRRRGGGGVTDFGVFVEI [R23I^T, TAT cell-penetrating peptide linked via glycine linker to amyloidogenic fragment of S1 ribosomal protein of T. thermophilus] |  | ↑ |  | − | − | − | − | + |  | − | ↑ | ↑ |  |  |  | did not inhibit |  | − | − | 
4 | RKKRRQRRRGGGGITDFGIFIGL [R23L^P] | comparable to that of meropenem |  |  |  | − | − | − | + | 10 | ↓ (10 mg/mL) | ↑ | ↑ |  |  | ↑ | did not inhibit | − |  |  | 
5 | ITDFGIFIGLGGGGSRQIKIWFQNRRMKWKK [I31K^P] |  |  |  | − |  |  |  |  |  | − | ↑ | ↑ |  |  | ↑ |  | − | − | − | 
